Results published in the supplement of paper PMC10307832.

Assays:
Experiment in all cases: relative viability (nuclei count vs DMSO), 5 days (fraction); higher = more cells survive
[1] = compound: Nc1nc2[nH]cc(CCc3ccc(C(=O)N[C@@H](CCC(=O)O)C(=O)O)cc3)c2c(=O)[nH]1 [Pemetrexed] + Cc1cc(Nc2cc(N3CCN(C)CC3)nc(Sc3ccc(NC(=O)C4CC4)cc3)n2)n[nH]1 [Tozasertib] (partner 0.1 µM)
How it was run: (§1)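 Values are medians from duplicate plates. Each reflects relative viability, defined as the nuclei count of treated wells over that of vehicle wells. Lung cancer cell lines in 1536-well plates were pin-tool dosed one day after seeding with one drug alone or with a fixed anchor-drug dose plus five library-drug doses (not always all listed) in √10 steps, then fixed, stained and imaged at 4× after 5 days.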

[2] = compound: Nc1nc2[nH]cc(CCc3ccc(C(=O)N[C@@H](CCC(=O)O)C(=O)O)cc3)c2c(=O)[nH]1 [Pemetrexed] + CS(=O)(=O)CCNCc1ccc(-c2ccc3ncnc(Nc4ccc(OCc5cccc(F)c5)c(Cl)c4)c3c2)o1 [Lapatinib] (partner 2 µM)
How it was run: as §1

[3] = compound: CC[C@H](Nc1ncnc2[nH]cnc12)c1nc2cccc(F)c2c(=O)n1-c1ccccc1 [Idelalisib] + O=C(c1cc(Cc2n[nH]c(=O)c3ccccc23)ccc1F)N1CCN(C(=O)C2CC2)CC1 [Olaparib] (partner 8 µM)
How it was run: as §1

[4] = compound: Nc1nc2[nH]cc(CCc3ccc(C(=O)N[C@@H](CCC(=O)O)C(=O)O)cc3)c2c(=O)[nH]1 [Pemetrexed] + COc1cc2c(Oc3ccc(NC(=O)C4(C(=O)Nc5ccc(F)cc5)CC4)cc3F)ccnc2cc1OCCCN1CCOCC1 [Foretinib] (partner 0.25 µM)
How it was run: as §1

Row | Cell Line | relative viability ([1]; first compound 0.002 µM) | relative viability ([1]; first compound 0.006325 µM) | relative viability ([1]; first compound 0.02 µM) | relative viability ([1]; first compound 0.06325 µM) | relative viability ([1]; first compound 0.2 µM) | relative viability ([2]; first compound 0.002 µM) | relative viability ([2]; first compound 0.006325 µM) | relative viability ([2]; first compound 0.02 µM) | relative viability ([2]; first compound 0.06325 µM) | relative viability ([2]; first compound 0.2 µM) | relative viability ([3]; first compound 0.04 µM) | relative viability ([3]; first compound 0.1265 µM) | relative viability ([3]; first compound 0.4 µM) | relative viability ([3]; first compound 1.265 µM) | relative viability ([3]; first compound 4 µM) | relative viability ([4]; first compound 0.002 µM) | relative viability ([4]; first compound 0.006325 µM) | relative viability ([4]; first compound 0.02 µM) | relative viability ([4]; first compound 0.06325 µM) | relative viability ([4]; first compound 0.2 µM)
1 | HCC-44 | 0.903 | 0.945 | 1.15 | 0.853 | 0.372 | 0.928 | 1 | 1.03 | 1.02 | 0.874 | 1.05 | 0.998 | 0.962 | 1.04 | 1.05 |  |  |  |  | 
2 | HCC-78 | 0.312 | 0.32 | 0.378 | 0.308 | 0.259 |  | 0.796 | 0.58 | 0.223 | 0.153 | 0.78 | 0.855 | 0.553 | 0.781 | 0.585 | 0.447 | 0.541 | 0.54 | 0.319 | 0.298
3 | HCC-366 | 0.0686 | 0.0859 | 0.205 | 0.126 | 0.124 | 1.01 | 1.02 | 1.16 | 0.993 | 0.381 | 0.386 | 0.412 | 0.348 | 0.305 | 0.315 | 0.799 | 0.888 | 0.963 | 0.863 | 0.901
4 | HCC-827 | 0.377 | 0.414 | 0.441 | 0.44 | 0.335 | 0.178 | 0.196 | 0.169 | 0.191 | 0.166 | 0.667 | 0.613 | 0.612 | 0.571 | 0.491 | 0.903 | 1.03 | 1.03 | 1.01 | 0.916
5 | HOP-62 | 0.334 | 0.306 | 0.409 | 0.368 | 0.349 | 0.885 | 1.07 | 0.898 | 1.14 | 0.982 | 0.306 | 0.538 | 0.442 | 0.387 | 0.498 | 0.892 | 1.02 | 1.2 | 1.09 | 1.07
6 | IA-LM |  |  |  |  |  | 0.719 | 0.869 | 1.03 | 0.827 | 0.636 | 0.711 | 0.952 | 0.747 | 1.02 | 0.93 | 1.05 | 1.1 | 1.05 | 1.14 | 0.829
7 | LC-2-ad | 0.378 | 0.45 | 0.43 | 0.296 | 0.259 | 0.747 | 1.01 | 1.01 | 0.27 | 0.179 | 0.691 | 0.728 | 0.764 | 0.805 | 0.734 | 0.818 | 0.946 | 0.526 | 0.296 | 0.284
8 | LCLC-97TM1 | 0.184 | 0.245 | 0.315 | 0.254 | 0.284 | 1.32 | 0.653 | 1.05 | 1.21 | 0.353 | 0.328 | 0.349 | 0.324 | 0.347 | 0.378 | 1.01 | 0.81 | 0.886 | 0.872 | 0.886
9 | LCLC-103H | 0.451 | 0.366 | 0.515 | 0.443 | 0.443 |  |  |  |  |  | 0.728 | 0.791 | 0.721 | 0.757 | 0.705 | 0.719 | 0.666 | 0.833 | 0.725 | 0.802
10 | LK-2 | 0.191 | 0.148 | 0.176 | 0.197 | 0.165 | 0.863 | 0.877 | 1.13 | 0.775 | 0.521 | 0.874 | 0.631 |  | 0.983 | 0.609 | 1.09 | 0.984 | 1.25 | 1.2 | 1.11
11 | NCI-H441 | 0.66 | 0.484 | 0.827 | 0.515 | 0.342 |  |  |  |  |  | 0.532 | 0.582 |  | 0.618 | 0.55 | 1.02 | 0.926 | 1.08 | 0.741 | 0.438
12 | NCI-H522 | 0.544 | 0.518 | 0.582 | 0.56 | 0.593 |  |  |  |  |  | 0.684 | 0.526 | 0.606 | 0.678 | 0.72 |  |  |  |  | 
13 | NCI-H1299 |  |  |  |  |  | 0.926 | 0.92 | 0.964 | 0.955 | 0.918 | 1.01 | 0.982 | 0.941 | 1.02 | 1.06 | 1.08 | 1.15 | 1.12 | 1.09 | 0.595
14 | NCI-H1563 |  |  |  |  |  | 0.83 | 0.804 | 0.921 | 0.971 | 0.986 |  |  |  |  |  | 0.822 | 0.87 | 1.01 | 0.909 | 0.919
15 | NCI-H1623 | 0.409 | 0.357 | 0.425 | 0.433 | 0.434 |  |  |  |  |  |  |  |  |  |  | 0.794 | 0.831 | 0.861 | 0.848 | 0.769
16 | NCI-H1648 | 0.531 | 0.486 | 0.595 |  | 0.542 |  |  |  |  |  |  | 1.16 | 0.712 | 1.11 | 0.657 |  |  |  |  | 
17 | NCI-H1703 |  |  |  |  |  | 1.02 | 0.865 | 1.59 | 0.9 | 0.976 | 0.459 | 0.436 | 0.365 | 0.388 | 0.237 | 0.304 | 0.283 | 0.415 | 0.345 | 0.369
18 | NCI-H1792 |  |  |  |  |  | 0.829 | 0.895 | 0.861 | 0.875 | 0.862 | 0.244 | 0.369 | 0.267 | 0.409 | 0.298 |  |  |  |  | 
19 | NCI-H2342 | 0.454 | 0.497 | 0.573 | 0.589 | 0.486 |  |  |  |  |  | 0.442 | 0.481 | 0.457 | 0.421 | 0.407 | 0.997 | 1.08 | 0.94 | 1.05 | 0.915
20 | SW 900 | 0.5 | 0.535 | 0.678 | 0.495 | 0.466 |  |  |  |  |  | 0.904 | 0.842 | 0.729 | 0.93 | 0.665 | 0.908 | 0.77 | 0.874 | 0.688 | 0.588
